Measurements as given in ChEMBL document CHEMBL1201862, “PubChem BioAssay data set” (2004).
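Where inhibition never reached the appropriate level, the endpoint shown equals the highest concentration tested. Otherwise, values were interpolated linearly from a five-concentration, 48-hour dose response in 96-well plates. GI50: concentration for 50% inhibition of growth.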 Active and inactive are the calls of the source. Rule as the data show it: active = GI50 up to about 1.1 µM and inactive = higher.

What was measured:
Assay in all cases: DTP human tumour cell line panel, 48 h
786-0 = system: 786-0
A498 = system: A498
A549 = system: A549
ACHN = system: ACHN
BT-549 = system: BT-549
CAKI-1 = system: CAKI-1
CCRF-CEM = system: CCRF-CEM
COLO 205 = system: COLO 205
DU-145 = system: DU-145
EKVX = system: EKVX
HCC 2998 = system: HCC 2998
HCT-116 = system: HCT-116
HCT-15 = system: HCT-15
HOP-62 = system: HOP-62
HOP-92 = system: HOP-92
Hs-578T = system: Hs-578T
IGROV-1 = system: IGROV-1
K562 = system: K562
KM12 = system: KM12
LOX IMVI = system: LOX IMVI
M14 = system: M14
MCF7 = system: MCF7
MDA-MB-231 = system: MDA-MB-231
MDA-MB-435 = system: MDA-MB-435
MDA-N = system: MDA-N
Malme-3M = system: Malme-3M
NCI-H23 = system: NCI-H23
NCI-H460 = system: NCI-H460
NCI-H522 = system: NCI-H522
NCI/ADR-RES = system: NCI/ADR-RES
OVCAR-3 = system: OVCAR-3
OVCAR-4 = system: OVCAR-4
OVCAR-5 = system: OVCAR-5
OVCAR-8 = system: OVCAR-8
PC-3 = system: PC-3
RPMI-8226 = system: RPMI-8226
RXF 393 = system: RXF 393
SF-268 = system: SF-268
SF-295 = system: SF-295
SK-MEL-28 = system: SK-MEL-28
SK-MEL-2 = system: SK-MEL-2
SK-MEL-5 = system: SK-MEL-5
SK-OV-3 = system: SK-OV-3
SN12C = system: SN12C
SNB-19 = system: SNB-19
SNB-75 = system: SNB-75
SR = system: SR
SW-620 = system: SW-620
T47D = system: T47D
TK-10 = system: TK-10
U-251 = system: U-251
UACC-257 = system: UACC-257
UACC-62 = system: UACC-62
UO-31 = system: UO-31
HL-60 = system: HL-60
HT-29 = system: HT-29
MOLT-4 = system: MOLT-4
NCI-H226 = system: NCI-H226
SF-539 = system: SF-539

## O=C(O)Cc1ccc2nc(COC(=O)c3ccccc3)sc2c1
786-0
  GI50: > 100000 nM (inactive)
A498
  GI50: > 100000 nM (inactive)
A549
  GI50: > 100000 nM (inactive)
ACHN
  GI50: > 100000 nM (inactive)
BT-549
  GI50: > 100000 nM (inactive)
CAKI-1
  GI50: > 100000 nM (inactive)
CCRF-CEM
  GI50: < 10 nM (active)
COLO 205
  GI50: > 100000 nM (inactive)
DU-145
  GI50: > 100000 nM (inactive)
EKVX
  GI50: > 100000 nM (inactive)
HCC 2998
  GI50: > 100000 nM (inactive)
HCT-116
  GI50: 83800 nM (inactive)
HCT-15
  GI50: > 100000 nM
HOP-62
  GI50: > 100000 nM (inactive)
HOP-92
  GI50: > 100000 nM (inactive)
Hs-578T
  GI50: > 100000 nM (inactive)
IGROV-1
  GI50: > 100000 nM (inactive)
K562
  GI50: > 100000 nM (inactive)
KM12
  GI50: > 100000 nM (inactive)
LOX IMVI
  GI50: > 100000 nM (inactive)
M14
  GI50: > 100000 nM (inactive)
MCF7
  GI50: > 100000 nM (inactive)
MDA-MB-231
  GI50: > 100000 nM (inactive)
MDA-MB-435
  GI50: > 100000 nM (inactive)
MDA-N
  GI50: > 100000 nM (inactive)
Malme-3M
  GI50: > 100000 nM (inactive)
NCI-H23
  GI50: > 100000 nM (inactive)
NCI-H460
  GI50: > 100000 nM (inactive)
NCI-H522
  GI50: > 100000 nM (inactive)
NCI/ADR-RES
  GI50: > 100000 nM (inactive)
OVCAR-3
  GI50: > 100000 nM (inactive)
OVCAR-4
  GI50: > 100000 nM (inactive)
OVCAR-5
  GI50: > 100000 nM (inactive)
OVCAR-8
  GI50: > 100000 nM (inactive)
PC-3
  GI50: > 100000 nM (inactive)
RPMI-8226
  GI50: > 100000 nM (inactive)
RXF 393
  GI50: > 100000 nM (inactive)
SF-268
  GI50: > 100000 nM (inactive)
SF-295
  GI50: > 100000 nM (inactive)
SK-MEL-28
  GI50: > 100000 nM (inactive)
SK-MEL-2
  GI50: > 100000 nM (inactive)
SK-MEL-5
  GI50: > 100000 nM (inactive)
SK-OV-3
  GI50: > 100000 nM (inactive)
SN12C
  GI50: > 100000 nM (inactive)
SNB-19
  GI50: > 100000 nM (inactive)
SNB-75
  GI50: > 100000 nM (inactive)
SR
  GI50: > 100000 nM (inactive)
SW-620
  GI50: > 100000 nM (inactive)
T47D
  GI50: > 100000 nM (inactive)
TK-10
  GI50: > 100000 nM (inactive)
U-251
  GI50: > 100000 nM (inactive)
UACC-257
  GI50: > 100000 nM (inactive)
UACC-62
  GI50: > 100000 nM (inactive)
UO-31
  GI50: > 100000 nM (inactive)

## Cc1c(CNc2ccc(C(=O)NC(CCCNC(=O)c3ccccc3C(=O)O)C(=O)O)cc2)cnc2nc(N)nc(N)c12 (configuration not stated)
786-0
  GI50: < 0.1 nM (active)
A549
  GI50: 0.419 nM (active)
ACHN
  GI50: 0.393 nM (active)
BT-549
  GI50: 1110 nM (active)
CAKI-1
  GI50: 1 nM (active)
CCRF-CEM
  GI50: 0.57 nM (active)
COLO 205
  GI50: 6.71 nM (active)
DU-145
  GI50: 0.91 nM (active)
EKVX
  GI50: 2.48 nM (active)
HCC 2998
  GI50: 0.899 nM (active)
HCT-116
  GI50: 0.582 nM (active)
HCT-15
  GI50: 0.453 nM
HL-60
  GI50: > 100000 nM (inactive)
HOP-62
  GI50: 387 nM (active)
HOP-92
  GI50: 2090 nM (inactive)
HT-29
  GI50: 1 nM (active)
Hs-578T
  GI50: 100 nM (active)
IGROV-1
  GI50: 0.518 nM (active)
K562
  GI50: < 0.1 nM (active)
KM12
  GI50: 0.521 nM (active)
LOX IMVI
  GI50: < 0.1 nM (active)
M14
  GI50: 0.656 nM (active)
MCF7
  GI50: 0.7 nM (active)
MDA-MB-231
  GI50: 3230 nM (inactive)
MDA-MB-435
  GI50: 0.596 nM (active)
MDA-N
  GI50: 1 nM (active)
MOLT-4
  GI50: 0.566 nM (active)
Malme-3M
  GI50: 468 nM (active)
NCI-H226
  GI50: 0.617 nM (active)
NCI-H23
  GI50: 1.51 nM (active)
NCI-H460
  GI50: 0.381 nM (active)
NCI-H522
  GI50: 1.51 nM (active)
NCI/ADR-RES
  GI50: 0.298 nM (active)
OVCAR-3
  GI50: 16.8 nM (active)
OVCAR-4
  GI50: 1550 nM (inactive)
OVCAR-5
  GI50: 199 nM (active)
OVCAR-8
  GI50: 0.324 nM (active)
PC-3
  GI50: 2000 nM (inactive)
RPMI-8226
  GI50: 0.834 nM (active)
RXF 393
  GI50: 382 nM (active)
SF-268
  GI50: 0.356 nM (active)
SF-295
  GI50: 0.593 nM (active)
SF-539
  GI50: 0.461 nM (active)
SK-MEL-28
  GI50: 192 nM (active)
SK-MEL-2
  GI50: 1220 nM (inactive)
SK-MEL-5
  GI50: 0.644 nM (active)
SK-OV-3
  GI50: 6.44 nM (active)
SN12C
  GI50: 4.66 nM (active)
SNB-19
  GI50: 10 nM (active)
SNB-75
  GI50: 2.22 nM (active)
SR
  GI50: 0.452 nM (active)
SW-620
  GI50: < 0.1 nM (active)
T47D
  GI50: 61.5 nM (active)
TK-10
  GI50: 1790 nM (inactive)
U-251
  GI50: 3.58 nM (active)
UACC-257
  GI50: 785 nM (active)
UACC-62
  GI50: 0.396 nM (active)
UO-31
  GI50: 1 nM (active)
